Laboratory results as given in US7157487B2, “Vla-4 inhibitors” (Daiichi Pharmaceutical Co., Ltd., priority 2000, dated 2007).

What was measured:
[1] = Pharmacokinetics and oral bioavailability in rats; assay type: in vivo; details: 2 /kg, Rat, oral, Dose/kg 2.0, plasma
Description: (§1) The pharmacokinetic parameter of the test compound orally administered to rats or dogs are described below.

[2] = Pharmacokinetics and oral bioavailability in dogs; assay type: in vivo; details: 2 /kg, Dog, oral, Dose/kg 2.0, plasma
Description: as §1

[3] = Evaluation of oral bioavailability by mouse bioassay; assay type: in vivo; details: 10 mg/kg oral, female Balb/C mice, serum 15 minutes after administration, read-out: Blood level
Method: A test compound was suspended or dissolved in a proper administration medium to give a concentration of 1 mg/ml. To 7 to 9 week old female Balb/C mice, 10 mg/kg of the resulting suspension or solution was orally administered. Fifteen minutes after the administration, blood was collected from the postcava under anesthesia with ether and the serum was separated from it. The concentration of each test compound was determined by estimating the serum level from a calibration curve obtained with VCAM-1/VLA-4 inhibitory activity as an index or measuring the concentration by using LC/MS/MS.

[4] = target: T1, integrins haα4 and β1 (VLA-4) expressed on CHO cells (Homo sapiens, UniProt P05556+P13612); test: In vitro Evaluation Test (1): binding of Eu3+-hVCAM-1 D1D7-IgG to CHO cells expressing integrins α4 and β1; details: inhibition of Eu3+-hVCAM-1 D1D7-IgG binding to CHO cells expressing α4β1; Ki calculated from IC50
T1 construct: expressed in transfected cells; host or cells: CHO cells
T1 sequence (P13612 34-1032): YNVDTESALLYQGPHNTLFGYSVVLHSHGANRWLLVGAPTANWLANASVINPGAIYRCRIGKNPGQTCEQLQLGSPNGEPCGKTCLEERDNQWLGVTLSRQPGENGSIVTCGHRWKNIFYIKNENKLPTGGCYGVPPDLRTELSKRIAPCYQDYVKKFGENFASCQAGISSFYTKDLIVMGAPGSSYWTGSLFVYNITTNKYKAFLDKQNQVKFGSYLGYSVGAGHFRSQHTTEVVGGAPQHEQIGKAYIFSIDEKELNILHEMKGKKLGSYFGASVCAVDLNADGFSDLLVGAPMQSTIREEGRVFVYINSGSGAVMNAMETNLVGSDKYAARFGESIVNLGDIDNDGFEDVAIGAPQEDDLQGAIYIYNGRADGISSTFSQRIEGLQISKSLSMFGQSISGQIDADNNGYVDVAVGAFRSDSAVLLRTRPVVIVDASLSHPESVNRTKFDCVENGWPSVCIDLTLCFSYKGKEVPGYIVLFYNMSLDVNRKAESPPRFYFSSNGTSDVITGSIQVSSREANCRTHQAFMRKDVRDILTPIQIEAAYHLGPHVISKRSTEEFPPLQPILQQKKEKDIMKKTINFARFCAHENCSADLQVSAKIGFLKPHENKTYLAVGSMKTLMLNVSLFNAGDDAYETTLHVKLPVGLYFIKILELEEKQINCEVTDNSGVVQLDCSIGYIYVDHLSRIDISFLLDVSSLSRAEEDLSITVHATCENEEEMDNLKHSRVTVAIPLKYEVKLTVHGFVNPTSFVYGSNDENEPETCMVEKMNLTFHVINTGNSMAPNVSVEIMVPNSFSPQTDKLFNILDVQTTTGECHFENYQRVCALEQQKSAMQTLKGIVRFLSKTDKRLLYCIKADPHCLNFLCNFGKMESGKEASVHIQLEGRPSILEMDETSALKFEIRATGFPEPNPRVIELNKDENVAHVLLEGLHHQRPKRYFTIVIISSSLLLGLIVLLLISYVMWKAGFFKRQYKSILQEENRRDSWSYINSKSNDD
T1 sequence (P05556 21-798): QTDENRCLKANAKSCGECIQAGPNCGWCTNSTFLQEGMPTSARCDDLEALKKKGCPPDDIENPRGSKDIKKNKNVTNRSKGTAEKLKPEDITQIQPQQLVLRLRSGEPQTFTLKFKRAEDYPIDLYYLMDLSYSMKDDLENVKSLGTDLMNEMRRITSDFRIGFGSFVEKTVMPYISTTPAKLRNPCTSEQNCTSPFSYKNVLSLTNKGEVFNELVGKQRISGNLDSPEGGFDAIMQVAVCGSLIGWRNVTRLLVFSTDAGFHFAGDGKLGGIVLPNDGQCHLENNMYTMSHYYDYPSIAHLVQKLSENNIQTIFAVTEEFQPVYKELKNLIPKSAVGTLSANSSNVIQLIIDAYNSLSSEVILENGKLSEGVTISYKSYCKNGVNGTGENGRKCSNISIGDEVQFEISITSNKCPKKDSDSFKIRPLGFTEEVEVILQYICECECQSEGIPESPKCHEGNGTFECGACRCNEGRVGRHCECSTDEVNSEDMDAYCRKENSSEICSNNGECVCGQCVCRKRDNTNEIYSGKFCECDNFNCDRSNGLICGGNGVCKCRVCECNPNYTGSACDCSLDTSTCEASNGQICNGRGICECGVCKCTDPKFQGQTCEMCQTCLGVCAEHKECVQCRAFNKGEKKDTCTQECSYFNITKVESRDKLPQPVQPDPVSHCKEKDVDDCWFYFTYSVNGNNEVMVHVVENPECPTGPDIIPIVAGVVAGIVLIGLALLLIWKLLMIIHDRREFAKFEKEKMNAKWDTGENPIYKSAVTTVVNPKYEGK
In short: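 CHO cells transduced with human α4 and β1 were grown for 2 days. They were incubated 1 h at room temperature with Eu3+-hVCAM-1 D1D7-IgG (diluted to 2 nM before addition) and compound, with or without 6% HSA, in HEPES pH 7.5 containing Ca2+, Mg2+ and 4 mM Mn2+. Time-resolved fluorescence gave IC50; Ki used a Scatchard-derived Kd (0.06–20 nM).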

[5] = read-out: F (%) oral bioavailability
[6] = read-out: CLtot (mL/min/kg) apparent plasma clearance

Structure (SMILES)	concentration at 15 min [3]	Ki [4]	other results
CO[C@H]1C[C@@H](COC2CCC(C(=O)O)CC2)N(C(=O)Cc2ccc3nc(Nc4ccccc4C)oc3c2)C1 (single isomer, unassigned) [20 (Isomer A)]	–	–	AUC ([1]; LC/MS/MS): 0.152 µg·h/mL; bioavailability [1, 5]: 35%; clearance [1, 6]: 73 mL/min/kg; AUC ([2]; LC/MS/MS): 0.776 µg·h/mL; bioavailability [2, 5]: 44%; clearance [2, 6]: 19.1 mL/min/kg
CCCO[C@H]1C[C@@H](CO[C@H]2CC[C@H](C(=O)O)CC2)N(C(=O)Cc2cc(Cl)c(NC(=O)c3cn(C)c4ccccc34)cc2F)C1 [Example 118, trans-4-(1-((5-Chloro-2-fluoro-4-(1-methyl-3-indolylcarbonylamino)phenyl)acetyl)-(4S)-propoxy-(2S)-pyrrolidinylmethoxy)cyclohexanecarboxylic acid]	5.73 µg/mL	6.9 nM	–
O=C(O)C1CCC(OC[C@@H]2C[C@H](F)CN2C(=O)Cc2ccc3nc(Nc4ccccc4Cl)oc3c2F)CC1 (stereo partly drawn) [Example 37, 4-(1-(2-(2-Chlorophenyl)amino-7-fluoro-6-benzoxazolylacetyl)-(4S)-fluoro-(2S)-pyrrolidinylmethoxy)cyclohexanecarboxylic acid]	3.69 µg/mL	6.9 nM	–
COC[C@@H]1CC[C@@H](CO[C@H]2CC[C@H](C(=O)O)CC2)N1C(=O)Cc1cc(Cl)c(NC(=O)c2cn(C)c3ccccc23)cc1F [Example 141, trans-4-((1-(5-Chloro-2-fluoro-4-((1-methyl-3-indolyl)carbonylamino)phenyl)acetyl)-(5S)-methoxymethyl-(2S)-pyrrolidinylmethoxy)cyclohexanecarboxylic acid]	8.82 µg/mL	21 nM	–
CO[C@H]1CCN(C(=O)Cc2cc(Cl)c(NC(=O)c3nn(C)c4ccccc34)cc2F)[C@@H]1CO[C@H]1CC[C@H](C(=O)O)CC1 [Example 169, trans-4-(1-((5-Chloro-2-fluoro-4-((1-methyl-3-indazolylcarbonyl)amino)phenyl)acetyl)-(3S)-methoxy-(2R)-pyrrolidinylmethoxy)cyclohexanecarboxylic acid]	21.8 µg/mL	16 nM	–
COC[C@H]1CC[C@@H](CO[C@H]2CC[C@H](C(=O)O)CC2)N1C(=O)Cc1cc(Cl)c(NC(=O)c2nn(C)c3ccccc23)cc1F [Example 166, trans-4-(1-((5-Chloro-2-fluoro-4-((1-methyl-3-indazolylcarbonyl)amino)phenyl)acetyl)-(5R)-methoxymethyl-(2S)-pyrrolidinylmethoxy)cyclohexanecarboxylic acid]	3.07 µg/mL	7.9 nM	–
Cn1cc(C(=O)Nc2cc(F)c(CC(=O)N3C[C@@H](F)C[C@H]3CO[C@H]3CC[C@H](C(=O)O)CC3)cc2F)c2ccccc21 [Example 71, trans-4-(1-(2,5-Difluoro-4-((1-methyl-1H-3-indolylcarbonyl)amino)phenylacetyl)-(4S)-fluoro-(2S)-pyrrolidinylmethoxy)cyclohexanecarboxylic acid]	7.34 µg/mL	18 nM	–
Cn1cc(C(=O)Nc2ccc(CC(=O)N3C[C@@H](F)C[C@H]3CO[C@H]3CC[C@H](C(=O)O)CC3)cc2F)c2ccccc21 [Example 70, trans-4-(1-(3-Fluoro-4-(1-methyl-3-indolyl)carbonylaminophenylacetyl)-(4S)-fluoro-(2S)-pyrrolidinylmethoxy)cyclohexanecarboxylic acid]	2.8 µg/mL	7.2 nM	–
Cn1nc(C(=O)Nc2cc(F)c(CC(=O)N3C[C@@H](F)C[C@H]3CO[C@H]3CC[C@H](C(=O)O)CC3)cc2Cl)c2ccccc21 [Example 87, trans-4-(1-((5-Chloro-2-fluoro-4-((1-methyl-3-indazolylcarbonyl)amino)phenyl)acetyl)-(4S)-fluoro-(2S)-pyrrolidinylmethoxy)cyclohexanecarboxylic acid]	15.1 µg/mL	9.1 nM	–
O=C(Cc1cc(Cl)c(Nc2nc3ccccc3o2)cc1F)N1C[C@@H](F)C[C@H]1CO[C@H]1CC[C@H](C(=O)O)CC1 [Example 55, trans-4-(1-(4-(2-Benzoxazolyl)amino-5-chloro-2-fluorophenylacetyl)-(4S)-fluoro-(2S)-pyrrolidinylmethoxy)cyclohexanecarboxylic acid]	2.03 µg/mL	8.5 nM	–

The next lines start with results.

concentration at 15 min [3]	Ki [4]	Structure (SMILES)	other results
3.2 µg/mL	3.4 nM	O=C(Cc1ccc(Nc2nc3cc(F)ccc3s2)c(Cl)c1)N1C[C@@H](F)C[C@H]1CO[C@H]1CC[C@H](C(=O)O)CC1 [Example 62, trans-4-(1-(3-Chloro-4-(5-fluoro-2-benzothiazolyl)aminophenylacetyl)-(4S)-fluoro-(2)-pyrrolidinylmethoxy)cyclohexanecarboxylic acid]	–
0.533 µg/mL	5.5 nM	Cn1cc(-c2nc3ccc(CC(=O)N4C[C@@H](F)C[C@H]4CO[C@H]4CC[C@H](C(=O)O)CC4)cc3o2)c2cc(F)ccc21 [Example 100, trans-4-(1-((2-(5-Fluoro-1-methyl-3-indolyl)-6-benzoxazolyl)acetyl)-(4S)-fluoro-(2S)-pyrrolidinylmethoxy)cyclohexanecarboxylic acid]	–
2.57 µg/mL	6.5 nM	CS[C@H]1C[C@@H](CO[C@H]2CC[C@H](C(=O)O)CC2)N(C(=O)Cc2cc(Cl)c(NC(=O)c3cn(C)c4ccccc34)cc2F)C1 [Example 125, trans-4-(1-((5-Chloro-2-fluoro-4-((1-methyl-3-indolylcarbonyl)amino)phenyl)acetyl)-(4S)-methylthio-(2S)-pyrrolidinylmethoxy)cyclohexanecarboxylic acid]	–
1.88 µg/mL	4.4 nM	Cn1cc(C(=O)Nc2cc(Cl)c(CC(=O)N3C[C@@H](F)C[C@H]3CO[C@H]3CC[C@H](C(=O)O)CC3)cc2Cl)c2ccccc21 [Example 72, trans-4-(1-(2,5-Dichloro-4-((1-methyl-1H-3-indolylcarbonyl)amino)phenylacetyl)-(4S)-fluoro-(2S)-pyrrolidinylmethoxy)cyclohexanecarboxylic acid]	–
1.1 µg/mL	1.5 nM	O=C(O)C1CCC(OC[C@@H]2C[C@H](F)CN2C(=O)Cc2ccc(NC(=O)N3CCc4ccccc43)c(Cl)c2)CC1 (stereo partly drawn) [Example 36, 4-(1-(3-Chloro-4-(1-indolinylcarbonylamino)phenylacetyl)-(4S)-fluoro-(2S)-pyrrolidinylmethoxy)cyclohexanecarboxylic acid]	–
3.32 µg/mL	2.3 nM	O=C(Cc1cc(Cl)c(Nc2nc3ccccc3s2)cc1F)N1C[C@@H](F)C[C@H]1CO[C@H]1CC[C@H](C(=O)O)CC1 [Example 61, trans-4-(1-(4-(2-Benzothiazolyl)amino-5-chloro-2-fluorophenylacetyl)-(4S)-fluoro-(2S)-pyrrolidinylmethoxy)cyclohexanecarboxylic acid]	–
2.3 µg/mL	6.4 nM	COC[C@H]1CC[C@@H](CO[C@H]2CC[C@H](C(=O)O)CC2)N1C(=O)Cc1cc(Cl)c(NC(=O)c2cn(C)c3ccccc23)cc1F [Example 164, trans-4-(1-((5-Chloro-2-fluoro-4-((1-methyl-3-indolylcarbonyl)amino)phenyl)acetyl)-(5R)-methoxymethyl-(2S)-pyrrolidinylmethoxy)cyclohexanecarboxylic acid]	–
9.4 µg/mL	2.5 nM	CO[C@H]1C[C@@H](CO[C@H]2CC[C@H](C(=O)O)CC2)N(C(=O)Cc2cc(Cl)c(NC(=O)c3cn(C)c4ccccc34)cc2F)C1 [Example 116, trans-4-(1-((5-Chloro-2-fluoro-4-(1-methyl-3-indolylcarbonylamino)phenyl)acetyl)-(4S)-methoxy-(2S)-pyrrolidinylmethoxy)cyclohexanecarboxylic acid]	–
1.99 µg/mL	2.7 nM	O=C(Nc1ccc(CC(=O)N2C[C@@H](F)C[C@H]2CO[C@H]2CC[C@H](C(=O)O)CC2)cc1Cl)N1CCc2ccc(F)cc21 [Example 92]	–
2.96 µg/mL	2 nM	O=C(Nc1cc(F)c(CC(=O)N2C[C@@H](F)C[C@H]2CO[C@H]2CC[C@H](C(=O)O)CC2)cc1Cl)N1CCc2ccccc21 [Example 91, trans-4-(1-(5-Chloro-2-fluoro-4-(1-(indolinyl)carbonylamino)phenylacetyl)-(4S)-fluoro-(2S)-pyrrolidinylmethoxy)cyclohexanecarboxylic acid]	–
0.508 µg/mL	4.4 nM	O=C(Cc1ccc(Nc2nc3ccccc3o2)c(Cl)c1)N1C[C@@H](F)C[C@H]1CO[C@H]1CC[C@H](C(=O)O)CC1 [Example 49, trans-4-(1-(4-(2-benzoxazolyl)amino-3-chlorophenylacetyl)-(4S)-fluoro-(2S)-pyrrolidinylmethoxy)cyclohexanecarboxylic acid]	–
